Reference: the supplement of paper PMC5908809

Columns and labels:
[1] = system: normal NK cells expanded with K562-aAPC; experiment: percent inhibition of viability; higher = more inhibition; conditions: 72 h, IL-2 2.5 ng/mL
Experimental: (§1)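 Drug sensitivity and resistance testing on K562-aAPC-expanded normal NK cells: 5 concentrations (10-fold steps over a 10,000-fold range), 72 h at 37 °C, viability by CellTiter-Glo normalised to DMSO and benzethonium chloride controls; DSS from the fitted curve.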

IMC-1 (IL-2 20 ng/mL) [2] = experiment: as above; conditions: 72 h
[3] = system: normal primary NK cells, pool 2 (3 donors) (IL-2 2.5 ng/mL); experiment: as above; conditions: 72 h
[4] = system: normal primary NK cells, pool 3 (3 donors) (IL-2 2.5 ng/mL); experiment: as above; conditions: 72 h
[5] = system: normal NK cells expanded with K562-aAPC; experiment: drug sensitivity score (DSS) (DSS units); higher = more sensitive; extreme values may be limits of the assay; conditions: 72 h; IL-2 2.5 ng/mL
Experimental: as §1

IMC-1 (IL-2 20 ng/mL) [6] = experiment: as above; conditions: 72 h
[7] = system: normal primary NK cells, pool 2 (3 donors) (IL-2 2.5 ng/mL); experiment: as above; conditions: 72 h
[8] = system: normal primary NK cells, pool 3 (3 donors) (IL-2 2.5 ng/mL); experiment: as above; conditions: 72 h
DERL-7 (IL-2 2.5 ng/mL) [9] = experiment: percent inhibition of viability; higher = more inhibition; conditions: 72 h
KAI3 (IL-2 2.5 ng/mL) [10] = experiment: as above; conditions: 72 h
KHYG-1 (IL-2 2.5 ng/mL) [11] = experiment: as above; conditions: 72 h
NK-92 (IL-2 2.5 ng/mL) [12] = experiment: as above; conditions: 72 h
NK-YS (IL-2 2.5 ng/mL) [13] = experiment: as above; conditions: 72 h
NKL (IL-2 2.5 ng/mL) [14] = experiment: as above; conditions: 72 h
SNK-6 (IL-2 2.5 ng/mL) [15] = experiment: as above; conditions: 72 h
YT (IL-2 2.5 ng/mL) [16] = experiment: as above; conditions: 72 h
[17] = system: normal primary NK cells, pool 1 (3 donors) (IL-2 2.5 ng/mL); experiment: as above; conditions: 72 h
[18] = system: normal primary NK cells, pool 1 (3 donors), resting (IL-2 0 ng/mL); experiment: as above; conditions: 72 h
DERL-7 (IL-2 2.5 ng/mL) [19] = experiment: drug sensitivity score (DSS) (DSS units); higher = more sensitive; extreme values may be limits of the assay; conditions: 72 h
KAI3 (IL-2 2.5 ng/mL) [20] = experiment: as above; conditions: 72 h
KHYG-1 (IL-2 2.5 ng/mL) [21] = experiment: as above; conditions: 72 h
NK-92 (IL-2 2.5 ng/mL) [22] = experiment: as above; conditions: 72 h
NK-YS (IL-2 2.5 ng/mL) [23] = experiment: as above; conditions: 72 h
NKL (IL-2 2.5 ng/mL) [24] = experiment: as above; conditions: 72 h
SNK-6 (IL-2 2.5 ng/mL) [25] = experiment: as above; conditions: 72 h
YT (IL-2 2.5 ng/mL) [26] = experiment: as above; conditions: 72 h
[27] = system: normal primary NK cells, pool 1 (3 donors) (IL-2 2.5 ng/mL); experiment: as above; conditions: 72 h
[28] = system: normal primary NK cells, pool 1 (3 donors), resting (IL-2 0 ng/mL); experiment: as above; conditions: 72 h

CCN(c1cc(-c2ccc(CN3CCOCC3)cc2)cc(C(=O)NCc2c(C)cc(C)[nH]c2=O)c1C)C1CCOCC1 [Tazemetostat] (max concentration tested 10000 nM)
percent inhibition of viability [%]
Conditions | 1 nM | 10 nM | 100 nM | 1000 nM | 10000 nM
IMC-1 (IL-2 20 ng/mL) [2] | -6.56 | 0.55 | -2.13 | 1.66 | 2.45
[1] | -1.54 | 2.17 | -0.28 | 10.4 | 0.84
[3] | -7.19 | -1.07 | 5.71 | -5.28 | 7.6
[4] | -4.31 | -2.24 | 8.29 | -7.9 | 0.75

Conditions | drug sensitivity score
IMC-1 (IL-2 20 ng/mL) [6] | 0
[5] | 0
[7] | 0
[8] | 0

CON(C)C(=O)N1N=C(c2cc(F)ccc2F)S[C@@]1(CCCN)c1ccccc1 [Filanesib] (max concentration tested 1000 nM)
percent inhibition of viability [%]
Conditions | 0.1 nM | 1 nM | 10 nM | 100 nM | 1000 nM
IMC-1 (IL-2 20 ng/mL) [2] | 0.48 | 0.61 | 99.5 | 100 | 99.5
[1] | 5.43 | 2.85 | 56.5 | 56.8 | 56.8
[3] | -10.4 | 4.01 | 3.31 | 2.78 | 0.91
[4] | -8.61 | 0.04 | 1.29 | 2.17 | -3.73

Conditions | drug sensitivity score
IMC-1 (IL-2 20 ng/mL) [6] | 30.5
[5] | 18.2
[7] | 0
[8] | 0

N.N.[Cl][Pt][Cl] [Cisplatin] (max concentration tested 100000 nM)
percent inhibition of viability [%]
Conditions | 10 nM | 100 nM | 1000 nM | 10000 nM | 100000 nM
IMC-1 (IL-2 20 ng/mL) [2] | 0.88 | -0.16 | 84.2 | 100 | 100
[1] | 2.08 | 1.39 | 16.1 | 62.8 | 99.8
[3] | -10.5 | -3.22 | -1.72 | 25.3 | 92.7
[4] | -4.27 | 1.37 | -2.08 | 24 | 96.7

Conditions | drug sensitivity score
IMC-1 (IL-2 20 ng/mL) [6] | 27.8
[5] | 14.1
[7] | 8.93
[8] | 9.04

CC(C)n1nc(-c2ccc3oc(N)nc3c2)c2c(N)ncnc21 [MLN-0128] (max concentration tested 1000 nM)
percent inhibition of viability [%]
Conditions | 0.1 nM | 1 nM | 10 nM | 100 nM | 1000 nM
IMC-1 (IL-2 20 ng/mL) [2] | -2.42 | -1.34 | -16.7 | -30.3 | 19.6
[1] | -6.08 | -1.99 | 18 | 40.5 | 44.1
[3] | -8.27 | 4.32 | 23.5 | 28 | 36.7
[4] | -6.15 | 0.85 | 15.6 | 13.5 | 35.5

Conditions | drug sensitivity score
IMC-1 (IL-2 20 ng/mL) [6] | 0.2
[5] | 9.64
[7] | 8.27
[8] | 3.64

CCN(c1cc(-c2ccc(CN3CCOCC3)cc2)cc(C(=O)NCc2c(C)cc(C)[nH]c2=O)c1C)C1CCOCC1 [E7438] (max concentration tested 10000 nM)
percent inhibition of viability [%]
Conditions | DERL-7 (IL-2 2.5 ng/mL) [9] | KAI3 (IL-2 2.5 ng/mL) [10] | KHYG-1 (IL-2 2.5 ng/mL) [11] | NK-92 (IL-2 2.5 ng/mL) [12] | NK-YS (IL-2 2.5 ng/mL) [13] | NKL (IL-2 2.5 ng/mL) [14] | SNK-6 (IL-2 2.5 ng/mL) [15] | YT (IL-2 2.5 ng/mL) [16] | [17] | [18]
1 nM | 7.34 | -4.36 | -5.22 | -6.98 | -4.53 | -13.6 | 1.4 | -6.25 | 3.3 | 6.57
10 nM | 4.06 | 3.43 | -1.93 | -6.59 | -0.35 | -3.23 | 5.22 | -2.68 | -9.28 | -0.47
100 nM | 9.96 | 0.88 | 0.98 | 11.7 | 5.89 | 3.68 | 2.14 | 0.66 | 3.33 | 9.19
1000 nM | 1.71 | -7.37 | 0.03 | 12.3 | 2.91 | 3.36 | 2.9 | -5.62 | -10.7 | -13.6
10000 nM | 11.7 | -7.23 | 4.04 | 18 | 11.4 | -3.21 | -16.1 | 0.29 | -1.96 | 3.73

Conditions | drug sensitivity score
DERL-7 (IL-2 2.5 ng/mL) [19] | 0
KAI3 (IL-2 2.5 ng/mL) [20] | 0
KHYG-1 (IL-2 2.5 ng/mL) [21] | 0
NK-92 (IL-2 2.5 ng/mL) [22] | 3.24
NK-YS (IL-2 2.5 ng/mL) [23] | 0
NKL (IL-2 2.5 ng/mL) [24] | 0
SNK-6 (IL-2 2.5 ng/mL) [25] | 0
YT (IL-2 2.5 ng/mL) [26] | 0
[27] | 0
[28] | 0
